This passage reports IC50 and EC50 results from ChEMBL document CHEMBL1201862, “PubChem BioAssay data set” (2004).

Structures are written as SMILES. Calls of active or inactive are those of the source.

Assay [1] concerns the target T1, DNA dC->dU-editing enzyme APOBEC-3A (Homo sapiens, UniProt P31941). The assay can be described thus: SAR analysis of small molecule inhibitors of APOBEC3A DNA Deaminase via a fluorescence-based single-stranded DNA deaminase assay - Set 2. The conditions noted are these: read-out: IC50_Mean. The class given is functional.
The target in assay [2] is T2, Alkaline phosphatase, tissue-nonspecific isozyme (Homo sapiens, UniProt P05186).
T2 sequence (P05186 whole entry): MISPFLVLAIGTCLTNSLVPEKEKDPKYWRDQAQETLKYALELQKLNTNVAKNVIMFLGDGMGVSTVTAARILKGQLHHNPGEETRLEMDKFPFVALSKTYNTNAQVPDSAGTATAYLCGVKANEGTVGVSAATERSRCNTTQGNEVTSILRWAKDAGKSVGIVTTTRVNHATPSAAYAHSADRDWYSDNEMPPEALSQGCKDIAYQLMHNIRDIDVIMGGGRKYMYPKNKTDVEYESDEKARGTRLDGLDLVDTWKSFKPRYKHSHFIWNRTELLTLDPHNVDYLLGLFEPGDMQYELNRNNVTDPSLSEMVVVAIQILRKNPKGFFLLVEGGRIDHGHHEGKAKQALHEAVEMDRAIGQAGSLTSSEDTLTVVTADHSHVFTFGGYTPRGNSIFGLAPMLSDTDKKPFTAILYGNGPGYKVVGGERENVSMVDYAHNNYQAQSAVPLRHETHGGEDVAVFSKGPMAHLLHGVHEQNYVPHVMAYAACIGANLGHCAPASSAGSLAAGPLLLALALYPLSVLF
The assay can be described thus: TNAP enzyme activators, dose response, selectivity assay for mouse IAP activator project, biochemical, TNAP isozyme, mouse IAP uHTS hits (AID 488880). It is filed as functional.

Assay [3] deals with Intestinal-type alkaline phosphatase (Homo sapiens, UniProt P09923). The assay can be described thus: activation of human intestinal alkaline phosphatase – biochemical, dose response (AID 488873). The class given is functional.
Assay [4] deals with Induced myeloid leukemia cell differentiation protein Mcl-1 (Homo sapiens, UniProt Q07820). It is filed as functional.
For assay [5], the target named is T3, DNA dC->dU-editing enzyme APOBEC-3G (Homo sapiens, UniProt Q9HC16). Nature of the assay: SAR analysis of small molecule inhibitors of APOBEC3G DNA Deaminase via a fluorescence-based single-stranded DNA deaminase assay - Set 2. The conditions noted are these: read-out: IC50_Mean. It is filed as functional.
Assay [6] concerns the target T3, DNA dC->dU-editing enzyme APOBEC-3G. Nature of the assay: APOBEC3G deaminase inhibitors, SAR follow-up, biochemical, fluorescence, single-stranded DNA substrate (AID 602136). The class given is functional. The conditions noted are these: read-out: IC50_Mean.
Assay [7] concerns the target T1, DNA dC->dU-editing enzyme APOBEC-3A. The assay can be described thus: SAR analysis of small molecule inhibitors of APOBEC3A DNA Deaminase via a fluorescence-based single-stranded DNA deaminase assay. The conditions noted are these: read-out: IC50_Mean. The class given is functional.
Assay [8] deals with Intestinal-type alkaline phosphatase (Mus musculus, UniProt P24822). Nature of the assay: mouse intestinal alkaline phosphatase activators, dose response, biochemical, luminescence, uHTS hits (AID 488783). It is filed as functional.
For another assay, the target named is Large T antigen (Simian virus 40, UniProt P03070). The class given is functional, Betapolyomavirus macacae.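 Further: Confirmatory-stage PubChem screen for compounds that inhibit SV40 T antigen.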
For assay [9], the target named is Nucleotide-binding oligomerization domain-containing protein 2 (Homo sapiens, UniProt Q9HC29). Nature of the assay: NOD2 signaling inhibitors, analog potency, SAR follow-up, cell-based, set 3 (AID 2799). The class given is functional.
For another assay, the system named is HEK293. Nature of the assay: SAR analysis of compounds that are cytotoxic to HEK293 - Set 3. [Related pubchem assays (depositor defined):AID1575, AID1578, AID1848, AID1849, AID2001, AID2333, AID2334, AID2335, AID2337, AID2469]. It is filed as functional, cell-based. The conditions noted are these: Homo sapiens.
Assay [10] concerns the target Nucleotide-binding oligomerization domain-containing protein 1 (Homo sapiens, UniProt Q9Y239). The assay can be described thus: SAR analysis of compounds that inhibit NOD1 - Set 3. [Related pubchem assays (depositor defined):AID1566, AID1575, AID1578, AID1849, AID1852, AID2333, AID2335, AID2466]. The class given is functional.
The next assay has as its target Tumor necrosis factor (Homo sapiens, UniProt P01375). The assay can be described thus: TNFa-triggered NF-kB activation inhibitors, SAR follow-up, cell-based, set 3 (AID 2801). The class given is functional.
Assay [11] deals with T4, Kappa-type opioid receptor (Homo sapiens, UniProt P41145). Nature of the assay: KOR agonist analogs, arrestin-GFP redistribution, SAR follow-up, imaging, image-based, set 3 (AID 488833). It is filed as functional.
The next assay addresses Mu-type opioid receptor (Homo sapiens, UniProt P35372). Nature of the assay: SAR Analysis of Agonists of the MOR Receptor using an Image-Based Assay - Set 3. [Related pubchem assays (depositor defined):AID1777, AID1785, AID1786, AID1966, AID2133, AID2136, AID2284, AID2285, AID2352]. It is filed as functional.
Assay [12] deals with T4, Kappa-type opioid receptor. Nature of the assay: SAR analysis of small molecule agonists of the kappa opioid receptor via a luminescent beta-arrestin assay - Set 3. [Related pubchem assays (depositor defined):AID1777, AID1785, AID1786, AID1966, AID2133, AID2136, AID2284, AID2500]. The class given is functional.
For assay [13], the target named is Delta-type opioid receptor (Homo sapiens, UniProt P41143). The assay can be described thus: SAR Analysis of Agonists of the DOR Receptor using an Image-Based Assay - Set 3. [Related pubchem assays (depositor defined):AID1777, AID1786]. It is filed as functional.
Assay [14] addresses T5, Tyrosine-protein phosphatase non-receptor type 22 (Homo sapiens, UniProt Q9Y2R2).
T5 sequence (Q9Y2R2 whole entry): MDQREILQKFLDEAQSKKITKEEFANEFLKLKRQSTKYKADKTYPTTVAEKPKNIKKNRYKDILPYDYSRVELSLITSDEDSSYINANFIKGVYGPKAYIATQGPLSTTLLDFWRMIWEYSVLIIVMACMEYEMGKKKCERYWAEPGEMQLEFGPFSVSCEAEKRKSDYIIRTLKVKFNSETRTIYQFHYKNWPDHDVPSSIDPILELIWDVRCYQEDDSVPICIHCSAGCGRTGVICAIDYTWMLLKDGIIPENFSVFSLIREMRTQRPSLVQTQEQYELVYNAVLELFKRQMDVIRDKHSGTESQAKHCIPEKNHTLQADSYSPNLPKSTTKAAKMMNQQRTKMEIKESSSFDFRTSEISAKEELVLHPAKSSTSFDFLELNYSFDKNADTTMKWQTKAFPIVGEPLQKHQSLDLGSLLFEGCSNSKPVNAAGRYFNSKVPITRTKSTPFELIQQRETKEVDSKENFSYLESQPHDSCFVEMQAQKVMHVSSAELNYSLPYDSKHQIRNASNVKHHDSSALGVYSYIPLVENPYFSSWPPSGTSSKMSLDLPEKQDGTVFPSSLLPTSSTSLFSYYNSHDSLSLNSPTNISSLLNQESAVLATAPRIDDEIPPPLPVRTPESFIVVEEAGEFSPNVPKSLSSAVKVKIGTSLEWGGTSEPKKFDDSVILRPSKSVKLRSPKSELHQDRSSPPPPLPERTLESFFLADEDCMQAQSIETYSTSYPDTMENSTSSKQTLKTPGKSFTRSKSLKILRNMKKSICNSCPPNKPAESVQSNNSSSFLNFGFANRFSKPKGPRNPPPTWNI
It is filed as functional.

Assay [15] concerns the target T6, Tyrosine-protein phosphatase non-receptor type 7 (Homo sapiens, UniProt P35236).
T6 sequence (P35236 whole entry): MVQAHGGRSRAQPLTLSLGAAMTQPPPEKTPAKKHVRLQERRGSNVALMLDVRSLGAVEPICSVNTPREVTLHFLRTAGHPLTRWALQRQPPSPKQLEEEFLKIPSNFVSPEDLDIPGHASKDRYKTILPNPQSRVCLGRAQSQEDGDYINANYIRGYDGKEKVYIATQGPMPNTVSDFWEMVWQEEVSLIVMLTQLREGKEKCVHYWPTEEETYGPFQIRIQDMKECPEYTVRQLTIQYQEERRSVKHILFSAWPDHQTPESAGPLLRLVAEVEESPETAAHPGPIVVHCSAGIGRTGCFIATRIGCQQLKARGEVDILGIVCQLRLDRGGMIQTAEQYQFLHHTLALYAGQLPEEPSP
It is filed as functional.

For assay [16], the target named is T5, Tyrosine-protein phosphatase non-receptor type 22. It is filed as functional. The source holds these as a separate data set.

T4 sequence (P41145 whole entry): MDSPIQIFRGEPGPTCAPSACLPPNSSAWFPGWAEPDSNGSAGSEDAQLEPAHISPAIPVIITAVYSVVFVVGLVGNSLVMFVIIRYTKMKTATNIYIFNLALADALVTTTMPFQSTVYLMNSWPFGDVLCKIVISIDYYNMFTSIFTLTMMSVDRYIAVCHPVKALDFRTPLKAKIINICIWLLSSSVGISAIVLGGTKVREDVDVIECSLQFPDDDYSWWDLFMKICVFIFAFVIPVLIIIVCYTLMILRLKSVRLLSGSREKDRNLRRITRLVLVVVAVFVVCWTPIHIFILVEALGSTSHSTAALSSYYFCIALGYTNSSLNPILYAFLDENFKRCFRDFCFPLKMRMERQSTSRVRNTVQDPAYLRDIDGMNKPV
T1 sequence (P31941 whole entry): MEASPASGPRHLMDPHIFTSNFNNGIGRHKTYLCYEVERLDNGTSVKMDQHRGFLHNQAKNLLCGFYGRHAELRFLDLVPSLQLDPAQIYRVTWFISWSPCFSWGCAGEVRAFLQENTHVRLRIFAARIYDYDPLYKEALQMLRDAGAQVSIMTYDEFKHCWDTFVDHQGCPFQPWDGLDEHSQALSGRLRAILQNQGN
T3 sequence (Q9HC16 whole entry): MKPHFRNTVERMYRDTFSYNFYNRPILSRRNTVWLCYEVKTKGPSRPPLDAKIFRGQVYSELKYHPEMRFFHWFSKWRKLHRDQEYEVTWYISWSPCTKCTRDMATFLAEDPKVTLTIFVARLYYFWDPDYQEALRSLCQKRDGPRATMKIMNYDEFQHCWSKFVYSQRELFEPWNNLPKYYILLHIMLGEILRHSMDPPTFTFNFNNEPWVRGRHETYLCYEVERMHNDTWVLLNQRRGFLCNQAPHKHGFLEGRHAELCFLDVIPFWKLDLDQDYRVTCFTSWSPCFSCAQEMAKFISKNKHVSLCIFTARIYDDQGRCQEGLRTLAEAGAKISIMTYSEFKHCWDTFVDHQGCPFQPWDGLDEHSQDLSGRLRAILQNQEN
Sequence of Delta-type opioid receptor (P41143 whole entry): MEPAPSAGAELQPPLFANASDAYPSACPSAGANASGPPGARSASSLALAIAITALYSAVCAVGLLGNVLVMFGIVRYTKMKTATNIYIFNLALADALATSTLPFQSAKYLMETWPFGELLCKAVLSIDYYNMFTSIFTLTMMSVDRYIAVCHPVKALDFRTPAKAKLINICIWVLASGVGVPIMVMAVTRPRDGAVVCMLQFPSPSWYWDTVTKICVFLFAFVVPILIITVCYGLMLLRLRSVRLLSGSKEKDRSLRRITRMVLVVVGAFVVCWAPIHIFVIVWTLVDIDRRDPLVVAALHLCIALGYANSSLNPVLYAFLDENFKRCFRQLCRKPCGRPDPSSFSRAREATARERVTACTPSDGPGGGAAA
Sequence of Intestinal-type alkaline phosphatase (Mus musculus, UniProt P24822) (P24822 whole entry): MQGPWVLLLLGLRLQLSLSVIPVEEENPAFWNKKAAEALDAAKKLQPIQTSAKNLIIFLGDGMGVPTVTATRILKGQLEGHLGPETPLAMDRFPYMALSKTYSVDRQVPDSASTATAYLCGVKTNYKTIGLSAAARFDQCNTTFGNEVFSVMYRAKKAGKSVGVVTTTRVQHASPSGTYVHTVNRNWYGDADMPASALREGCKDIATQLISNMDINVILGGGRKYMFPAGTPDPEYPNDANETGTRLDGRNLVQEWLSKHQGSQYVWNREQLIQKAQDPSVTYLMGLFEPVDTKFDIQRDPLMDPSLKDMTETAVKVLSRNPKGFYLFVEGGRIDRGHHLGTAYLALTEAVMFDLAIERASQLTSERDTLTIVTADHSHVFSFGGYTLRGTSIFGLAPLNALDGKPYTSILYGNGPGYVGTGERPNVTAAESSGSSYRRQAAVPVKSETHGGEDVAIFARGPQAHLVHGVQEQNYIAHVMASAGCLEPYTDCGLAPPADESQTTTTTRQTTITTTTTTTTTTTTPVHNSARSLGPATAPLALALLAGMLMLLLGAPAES
Sequence of Nucleotide-binding oligomerization domain-containing protein 1 (Q9Y239 whole entry, the tested form may be a part): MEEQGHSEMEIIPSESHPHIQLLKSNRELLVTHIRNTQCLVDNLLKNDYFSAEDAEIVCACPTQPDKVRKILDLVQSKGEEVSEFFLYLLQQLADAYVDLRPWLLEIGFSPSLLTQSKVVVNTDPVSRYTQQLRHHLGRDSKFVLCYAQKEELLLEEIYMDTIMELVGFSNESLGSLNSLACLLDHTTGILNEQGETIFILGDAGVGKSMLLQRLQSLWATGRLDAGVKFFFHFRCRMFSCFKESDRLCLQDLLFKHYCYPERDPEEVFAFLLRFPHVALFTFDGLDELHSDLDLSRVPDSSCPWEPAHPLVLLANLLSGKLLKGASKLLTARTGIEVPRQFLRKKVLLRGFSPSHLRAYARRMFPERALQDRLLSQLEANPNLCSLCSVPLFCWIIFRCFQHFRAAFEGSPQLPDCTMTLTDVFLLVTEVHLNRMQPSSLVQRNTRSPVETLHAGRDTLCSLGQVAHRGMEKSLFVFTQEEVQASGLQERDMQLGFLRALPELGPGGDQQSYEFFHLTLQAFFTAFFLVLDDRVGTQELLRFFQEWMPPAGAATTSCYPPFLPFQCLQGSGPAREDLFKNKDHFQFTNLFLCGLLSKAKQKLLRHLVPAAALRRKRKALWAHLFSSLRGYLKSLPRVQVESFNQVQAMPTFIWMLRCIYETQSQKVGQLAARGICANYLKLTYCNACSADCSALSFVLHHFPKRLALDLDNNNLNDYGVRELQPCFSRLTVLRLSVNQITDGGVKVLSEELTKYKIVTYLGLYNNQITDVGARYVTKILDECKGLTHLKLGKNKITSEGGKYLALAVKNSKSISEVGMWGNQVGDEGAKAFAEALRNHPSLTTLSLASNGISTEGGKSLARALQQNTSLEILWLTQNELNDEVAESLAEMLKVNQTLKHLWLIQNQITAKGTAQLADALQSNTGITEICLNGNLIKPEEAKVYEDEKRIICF
Sequence of Large T antigen (P03070 whole entry, the tested form may be a part): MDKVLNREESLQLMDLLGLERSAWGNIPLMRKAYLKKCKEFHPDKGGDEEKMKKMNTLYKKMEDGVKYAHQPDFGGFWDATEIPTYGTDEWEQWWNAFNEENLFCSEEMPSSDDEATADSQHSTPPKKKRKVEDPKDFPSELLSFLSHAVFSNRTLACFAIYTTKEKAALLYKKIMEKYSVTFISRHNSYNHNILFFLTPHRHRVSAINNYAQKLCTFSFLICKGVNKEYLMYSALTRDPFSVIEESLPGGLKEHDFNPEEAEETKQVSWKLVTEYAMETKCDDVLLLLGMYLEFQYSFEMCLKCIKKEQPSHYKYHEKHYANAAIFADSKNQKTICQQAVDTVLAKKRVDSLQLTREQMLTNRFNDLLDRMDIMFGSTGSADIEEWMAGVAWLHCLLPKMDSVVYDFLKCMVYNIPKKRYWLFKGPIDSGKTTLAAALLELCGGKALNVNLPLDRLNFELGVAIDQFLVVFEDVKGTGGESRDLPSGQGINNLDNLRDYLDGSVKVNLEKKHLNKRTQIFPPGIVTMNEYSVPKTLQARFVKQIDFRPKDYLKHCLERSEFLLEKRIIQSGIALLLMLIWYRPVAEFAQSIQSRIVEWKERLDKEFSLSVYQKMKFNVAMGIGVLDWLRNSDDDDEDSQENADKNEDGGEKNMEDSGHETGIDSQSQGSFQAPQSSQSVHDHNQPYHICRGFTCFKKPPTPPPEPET
Sequence of Intestinal-type alkaline phosphatase (Homo sapiens, UniProt P09923) (P09923 whole entry): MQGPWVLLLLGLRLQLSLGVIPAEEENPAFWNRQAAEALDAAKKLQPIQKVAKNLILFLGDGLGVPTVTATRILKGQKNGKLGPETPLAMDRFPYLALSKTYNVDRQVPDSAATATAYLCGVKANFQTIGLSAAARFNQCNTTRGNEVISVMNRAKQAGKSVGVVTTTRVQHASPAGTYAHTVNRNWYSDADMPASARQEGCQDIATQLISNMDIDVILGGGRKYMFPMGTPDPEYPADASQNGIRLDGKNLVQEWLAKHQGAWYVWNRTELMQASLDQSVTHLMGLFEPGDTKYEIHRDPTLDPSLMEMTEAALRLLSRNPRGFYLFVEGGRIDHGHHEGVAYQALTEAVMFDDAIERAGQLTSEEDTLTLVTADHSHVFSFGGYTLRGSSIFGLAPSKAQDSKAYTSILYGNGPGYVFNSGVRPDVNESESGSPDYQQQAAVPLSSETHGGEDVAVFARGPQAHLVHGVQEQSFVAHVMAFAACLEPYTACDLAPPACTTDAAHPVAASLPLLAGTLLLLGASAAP
Sequence of Mu-type opioid receptor (P35372 whole entry): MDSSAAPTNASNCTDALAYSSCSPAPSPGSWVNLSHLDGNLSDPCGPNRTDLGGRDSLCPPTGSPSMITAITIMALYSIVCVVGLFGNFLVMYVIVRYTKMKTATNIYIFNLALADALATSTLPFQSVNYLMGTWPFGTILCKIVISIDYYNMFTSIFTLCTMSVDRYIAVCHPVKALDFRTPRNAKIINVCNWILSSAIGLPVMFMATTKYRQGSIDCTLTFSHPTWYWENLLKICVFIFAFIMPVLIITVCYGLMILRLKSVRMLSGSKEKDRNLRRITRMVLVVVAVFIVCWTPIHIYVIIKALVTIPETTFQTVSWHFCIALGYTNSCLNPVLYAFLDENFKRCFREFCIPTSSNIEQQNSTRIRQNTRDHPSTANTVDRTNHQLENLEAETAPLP
Sequence of Tumor necrosis factor (P01375 whole entry): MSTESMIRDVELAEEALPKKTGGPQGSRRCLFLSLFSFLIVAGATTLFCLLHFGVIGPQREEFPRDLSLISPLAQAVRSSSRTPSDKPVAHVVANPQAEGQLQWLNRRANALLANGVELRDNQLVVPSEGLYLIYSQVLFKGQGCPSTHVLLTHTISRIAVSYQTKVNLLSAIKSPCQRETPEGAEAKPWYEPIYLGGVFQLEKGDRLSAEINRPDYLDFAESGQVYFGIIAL

In the case of `O=C1NC(=S)NC(=O)C1=Cc1ccc2c(c1)CCN2CCCCl`, the IC50 in assay [1] is 6.63 µM (active); in [4], > 54 µM (active); in [5], 4.14 µM (active); in [6] it was 2.91 µM (active); in assay [7], 9.27 µM (active); at Large T antigen it was 28.8 µM (active). In addition, the EC50 in assay [2] is 55.5 µM (active); in [3], 96.3 µM (active); in [8], 76.6 µM (active).
As for `N#Cc1ccc(S(=O)(=O)n2c(N)nc3ccccc32)cc1`, the IC50 (in assay [9]; with HEK293; in assay [10]; on Tumor necrosis factor) was > 20 µM (inactive) each time.
`Cc1cc(C)c(CSc2nnc(-c3ccccn3)n2Cc2cccs2)c(C)c1`: the concentration for a half-maximal effect (EC50) in [11] is 9.5 µM (active); on Mu-type opioid receptor, > 32 µM (inactive); in assay [12], > 20 µM (inactive); in assay [13] it was > 32 µM (inactive).
On to `N/C(=N\N=C\c1ccc2c(c1)OCO2)SC1CC(=O)N(c2ccc(C(=O)O)cc2)C1=O` (stereo not given), for which the values for the IC50 in assay [14], in [15] and in assay [16] were 7.65 µM (active), 7.33 µM (active) and 8.58 µM (active), respectively.

For orientation: EC50 means the concentration needed to bring the measured effect to its halfway point.
